In this experiment the target is Ubiquitin-conjugating enzyme E2 N (Homo sapiens) (UniProt P61088). Put plainly: UBE2N binders by NMR, biophysical, purified protein (AID 1552). Particulars: NMR binding to purified UBE2N.

The source made the active and inactive calls. The rule behind the calls is not given here.

In general, Kd refers to the concentration at which binding is half-saturated.

Chain of Ubiquitin-conjugating enzyme E2 N (Homo sapiens) (P61088 whole entry, looked up): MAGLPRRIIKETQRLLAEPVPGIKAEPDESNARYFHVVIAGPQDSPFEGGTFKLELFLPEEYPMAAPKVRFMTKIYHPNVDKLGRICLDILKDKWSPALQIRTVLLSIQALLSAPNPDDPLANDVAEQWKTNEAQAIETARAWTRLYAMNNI

Take `COC(=O)c1scc(S(C)(=O)=O)c1-n1cccc1`: the Kd is > 4 mM (inactive).

In the case of `O=C(Nc1cccc(Cl)c1)c1ccncc1`, the Kd was > 4 mM (inactive).

With `COc1ccc(-c2coc3cc(OC(C)=O)cc(OC(C)=O)c3c2=O)cc1`, the Kd was > 4 mM (inactive).

Regarding `Cc1nc(-c2cccc(C(=O)O)c2)cs1`, the Kd was > 4 mM (inactive).

Turning to `O=C1Nc2ccccc2C1(O)Cc1ccncc1` (stereo unspecified), the Kd was > 4 mM (inactive).

Take `CC1=C(/C=C/C(C)=C/C=C/C(C)=C/C=C/C=C(C)/C=C/C=C(C)/C=C/C2=C(C)CCCC2(C)C)C(C)(C)CCC1`: the Kd is > 4 mM (inactive).

`CON(C)C(=O)Nc1ccc(Cl)cc1`: the Kd was > 4 mM (inactive).

Turning to `Cc1c(C(=O)NC2=NCCS2)oc2ccccc12`, the Kd is > 4 mM (inactive).

For `COc1c2ccoc2c(OC)c2oc(=O)ccc12`, the Kd is > 4 mM (inactive).

In the case of `O=C(c1ccc(Cl)c(F)c1F)N1CCCC1`, the Kd was > 4 mM (inactive).

Take `[O-][n+]1cc(O)c(CN2CCOCC2)c2ccccc21`: the Kd was > 4 mM (inactive).

As for `COc1ccc2[nH]c(O)c(NC(C)=O)c2c1`, the Kd is > 4 mM (inactive).

Turning to `Cc1occc1C(=O)Nc1sccc1C(N)=O`, the Kd is > 4 mM (inactive).

As to `COc1ccc(C)cc1-n1c(-c2ccncc2)n[nH]c1=S`, the Kd is > 4 mM (inactive).

For `OCCNc1ccccn1`, the Kd is > 4 mM (inactive).

On to `Cc1ccc(C)n1NC(=O)c1ccco1`, for which the Kd is > 4 mM (inactive).

Turning to `NC1=NC(=O)/C(=C\c2cccnc2)S1`, the Kd was > 4 mM (inactive).

`Cc1nn(C)c(C)c1C(=O)O`: the Kd was > 4 mM (inactive).

As for `CN1C(=O)c2ccc(N3CCCC3)cc2C1=O`, the Kd was > 4 mM (inactive).

Consider `O=C1CSC(c2ccc3c(c2)OCO3)N1` (stereo unspecified), for which the Kd is > 4 mM (inactive).

Turning to `Nc1nnc(SCc2cccnc2)s1`, the Kd was > 4 mM (inactive).

For the compound `Cc1ccc2c(c1)CCCN2C(=O)c1c(C)noc1C`, the Kd is > 4 mM (inactive).

Consider `CN(C)C(=O)Oc1cccc(-c2nnco2)c1`, for which the Kd is > 4 mM (inactive).

Take `Cc1cc2nc(SCC(=O)O)nc(C)c2cc1C`: the Kd is > 4 mM (inactive).

`CNC(=O)C(=O)Nc1c(C)cccc1C`: the Kd was > 4 mM (inactive).

Turning to `Cn1cccc1C(=O)NS(=O)(=O)c1ccccc1Cl`, the Kd is > 4 mM (inactive).

As to `N#Cc1cn(CC(=O)N2CCCC2)c2ccccc12`, the Kd was > 4 mM (inactive).

On to `Cc1nnc(SCC(=O)Nc2ccccc2)[nH]c1=O`, for which the Kd is > 4 mM (inactive).

On to `Cc1ccc(C(C)C)cc2c(C)ccc1-2`, for which the Kd is > 4 mM (inactive).

Regarding `NC(=O)c1ccsc1N`, the Kd was > 4 mM (inactive).

For `O=C(O)C1COc2ccccc2C1` (stereo unspecified), the Kd was > 4 mM (inactive).

For `COc1ccc2[nH]cc(CCNC(C)=O)c2c1`, the Kd was > 4 mM (inactive).

Regarding `Cc1c(C(=O)N2CCOCC2)oc2c1C(=O)CC(C)(C)C2`, the Kd was > 4 mM (inactive).

With `O=C(O)C1CCN(C(=O)c2cccs2)CC1`, the Kd is > 4 mM (inactive).

On to `COCC(=O)/C=C1\Sc2ccccc2N1C`, for which the Kd is > 4 mM (inactive).

For `COc1ccc2c(c1)OCC(Cc1ccc(OC)c(OC(C)=O)c1)C2=O` (stereo unspecified), the Kd is > 4 mM (inactive).

Take `CC(C)(C)c1cc(NC(=O)c2cccnc2)no1`: the Kd is > 4 mM (inactive).

Turning to `CC(=O)O[C@H]1CC[C@@]2(C)C(=CCC3C2CC[C@@]2(C)C3CC[C@@H]2C(C)CCCC(C)C)C1` (stereo partly specified), the Kd is > 4 mM (inactive).

`O=C(Nc1ccccc1C(F)(F)F)c1cnccn1`: the Kd is > 4 mM (inactive).

As for `CC(=O)Nc1ccc2c(c1)C(=O)N(C1CCCCC1)C2=O`, the Kd was > 4 mM (inactive).

With `COc1ccc(-c2cc(=O)c3c(OC(C)=O)cc(OC(C)=O)cc3o2)cc1`, the Kd is > 4 mM (inactive).

For the origin of these results see PubChem BioAssay AID1552 (Sanford-Burnham Center for Chemical Genomics, 2009).
